Where two headings read alike, the source gives them in different places.
Legend:
LasB [1] = target: T1, LasB (Pseudomonas aeruginosa, UniProt Q02RJ6); details: read-out: IC50 (LasB); literature inhibitor; cited from earlier work
[2] = target: peptidase domain of ColH (ColH-PD) (Hathewaya histolytica, UniProt Q46085); assay: biochemical; set-up: species or system Clostridium histolyticum; details: read-out: ColH-PD % inhibition @ 1 μM
MMP-1 = target: T2, MMP-1 (Homo sapiens, UniProt P03956); assay: MMP-1 off-target inhibition; format: biochemical; details: read-out: MMP-1 % inhibition @ 100 μM; 100 μM compound
T2 sequence (P03956 100-469): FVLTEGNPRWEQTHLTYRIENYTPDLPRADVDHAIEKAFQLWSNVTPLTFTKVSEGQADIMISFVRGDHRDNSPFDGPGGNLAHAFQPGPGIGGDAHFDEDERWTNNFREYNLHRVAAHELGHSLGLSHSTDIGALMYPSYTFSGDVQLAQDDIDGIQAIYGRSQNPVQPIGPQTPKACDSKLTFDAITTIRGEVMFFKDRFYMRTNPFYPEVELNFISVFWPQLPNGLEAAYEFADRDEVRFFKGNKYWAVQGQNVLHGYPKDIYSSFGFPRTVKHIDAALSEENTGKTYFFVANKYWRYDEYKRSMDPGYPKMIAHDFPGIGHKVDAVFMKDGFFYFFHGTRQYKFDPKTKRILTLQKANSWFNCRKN
From the text: (§1) Previously, we described N-aryl mercaptoacetamides with high selectivity for the bacterial over a broad range of human MMPs.[29],[30] MMPs are calcium-dependent zinc metalloproteases that play a pivotal role in numerous biochemical processes in humans.[39],[40] Based on the depth of their S1′ binding pocket, MMPs can be divided into three classes: deep (e.g., MMP-3 and -14), intermediate (e.g., MMP-2 and -8), and shallow (e.g., MMP-1 and -7). With the aim to explore the interactions of our inhibitors with all three pocket types, which could help us to assess potential effects on other not-tested representatives, we chose a panel of six MMPs, comprising two members of each class. In addition, HDAC-3, HDAC-8, and TACE (ADAM-17)—enzymes involved in gene expression and the processing of TNF-α,[41],[42] respectively—were selected as important additional human off-targets.

MMP-2 = target: T3, MMP-2 (Homo sapiens, UniProt P08253); assay: MMP-2 off-target inhibition; format: biochemical
T3 sequence (P08253 110-660): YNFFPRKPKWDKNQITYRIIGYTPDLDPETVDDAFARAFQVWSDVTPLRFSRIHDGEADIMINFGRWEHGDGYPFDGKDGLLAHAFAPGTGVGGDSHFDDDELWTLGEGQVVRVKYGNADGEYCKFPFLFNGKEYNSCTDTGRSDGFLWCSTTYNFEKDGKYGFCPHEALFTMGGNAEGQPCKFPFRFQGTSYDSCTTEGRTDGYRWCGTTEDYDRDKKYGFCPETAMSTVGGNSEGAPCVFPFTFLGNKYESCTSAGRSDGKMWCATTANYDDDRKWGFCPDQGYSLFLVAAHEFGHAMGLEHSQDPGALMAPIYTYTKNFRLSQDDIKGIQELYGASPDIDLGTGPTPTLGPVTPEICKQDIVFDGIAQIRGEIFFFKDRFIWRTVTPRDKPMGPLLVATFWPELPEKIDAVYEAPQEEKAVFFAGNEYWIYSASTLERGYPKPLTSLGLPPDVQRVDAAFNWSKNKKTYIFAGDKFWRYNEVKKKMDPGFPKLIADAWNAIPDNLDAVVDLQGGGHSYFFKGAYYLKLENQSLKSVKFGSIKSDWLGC
From the text: as §1

MMP-3 = MMP-3 (Homo sapiens, UniProt P08254); assay: MMP-3 off-target inhibition; format: biochemical; details: read-out: MMP-3 % inhibition @ 100 μM; 100 μM compound
From the text: as §1

MMP-7 = target: T4, MMP-7 (Homo sapiens, UniProt P09237); assay: MMP-7 off-target inhibition; format: biochemical; details: read-out: MMP-7 % inhibition @ 100 μM; 100 μM compound
T4 sequence (P09237 95-267): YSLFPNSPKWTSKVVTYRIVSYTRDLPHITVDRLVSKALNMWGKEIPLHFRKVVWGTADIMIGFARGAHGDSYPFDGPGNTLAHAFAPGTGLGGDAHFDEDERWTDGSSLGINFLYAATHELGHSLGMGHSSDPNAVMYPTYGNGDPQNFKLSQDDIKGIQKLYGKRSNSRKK
From the text: as §1

MMP-8 = MMP-8 (Homo sapiens, UniProt P22894); assay: MMP-8 off-target inhibition; format: biochemical
From the text: as §1

MMP-14 = MMP-14 (Homo sapiens, UniProt P50281); assay: MMP-14 off-target inhibition; format: biochemical
From the text: as §1

HDAC-3 = target: T5, HDAC-3 (Homo sapiens, UniProt O15379); assay: HDAC-3 inhibitor screening kit; format: biochemical
T5 construct: purchased Sigma-Aldrich (Saint Louis, MO)
From the text: as §1

HDAC-8 = target: T6, HDAC-8 (Homo sapiens, UniProt Q9BY41); assay: HDAC-8 inhibitor screening kit; format: biochemical
T6 construct: purchased Sigma-Aldrich (Saint Louis, MO)
T6 sequence (Q9BY41 1-377): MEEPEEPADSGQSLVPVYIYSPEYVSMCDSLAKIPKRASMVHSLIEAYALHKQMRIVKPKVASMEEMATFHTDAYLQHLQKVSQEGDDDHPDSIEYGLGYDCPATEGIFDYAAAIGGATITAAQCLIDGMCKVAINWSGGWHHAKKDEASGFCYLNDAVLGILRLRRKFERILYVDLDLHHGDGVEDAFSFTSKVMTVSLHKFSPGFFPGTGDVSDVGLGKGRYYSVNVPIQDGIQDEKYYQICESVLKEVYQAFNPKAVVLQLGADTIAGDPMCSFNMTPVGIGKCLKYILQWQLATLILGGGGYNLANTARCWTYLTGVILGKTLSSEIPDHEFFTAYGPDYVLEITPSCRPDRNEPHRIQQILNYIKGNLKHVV
From the text: as §1

TACE (ADAM-17) = target: T7, TACE (ADAM-17) (Homo sapiens, UniProt P78536); assay: TACE inhibitor screening kit; format: biochemical
T7 construct: purchased Sigma-Aldrich (Saint Louis, MO)
From the text: as §1

[3] = test system: P. aeruginosa strain PA14; assay: Bacterial growth inhibition assay (MIC) P. aeruginosa; format: cell-based, Pseudomonas aeruginosa
LasB [4] = target: T1, LasB
in vitro [5] = details: human, HepG2 cells (hepatocellular carcinoma)
in vitro [6] = details: human, HEK293 cells (embryonal kidney)
in vitro [7] = details: human, A549 cells (lung carcinoma)
LasB [8] = target: T1, LasB; assay: biochemical; details: LasB IC50, FRET-based assay

T1 sequence (Q02RJ6 198-498): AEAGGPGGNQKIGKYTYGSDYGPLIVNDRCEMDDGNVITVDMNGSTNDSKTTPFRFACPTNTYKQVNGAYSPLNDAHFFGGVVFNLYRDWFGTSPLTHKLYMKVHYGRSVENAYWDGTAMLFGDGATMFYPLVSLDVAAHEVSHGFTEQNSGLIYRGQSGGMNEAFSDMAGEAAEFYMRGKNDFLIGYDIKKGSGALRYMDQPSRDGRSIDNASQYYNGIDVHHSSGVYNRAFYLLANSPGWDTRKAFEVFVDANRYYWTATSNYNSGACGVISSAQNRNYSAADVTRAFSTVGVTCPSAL
Chain of MMP-8 (P22894 101-467): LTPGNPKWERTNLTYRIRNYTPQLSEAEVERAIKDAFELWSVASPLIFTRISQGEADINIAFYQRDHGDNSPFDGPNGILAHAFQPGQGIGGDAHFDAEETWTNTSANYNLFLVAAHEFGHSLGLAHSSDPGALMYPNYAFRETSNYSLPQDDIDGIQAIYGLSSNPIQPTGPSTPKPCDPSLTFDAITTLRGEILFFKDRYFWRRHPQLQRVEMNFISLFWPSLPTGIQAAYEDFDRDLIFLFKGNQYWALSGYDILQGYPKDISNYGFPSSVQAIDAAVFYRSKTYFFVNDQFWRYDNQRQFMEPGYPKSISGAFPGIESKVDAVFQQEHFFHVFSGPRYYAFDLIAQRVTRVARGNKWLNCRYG
T5 sequence (O15379 whole entry): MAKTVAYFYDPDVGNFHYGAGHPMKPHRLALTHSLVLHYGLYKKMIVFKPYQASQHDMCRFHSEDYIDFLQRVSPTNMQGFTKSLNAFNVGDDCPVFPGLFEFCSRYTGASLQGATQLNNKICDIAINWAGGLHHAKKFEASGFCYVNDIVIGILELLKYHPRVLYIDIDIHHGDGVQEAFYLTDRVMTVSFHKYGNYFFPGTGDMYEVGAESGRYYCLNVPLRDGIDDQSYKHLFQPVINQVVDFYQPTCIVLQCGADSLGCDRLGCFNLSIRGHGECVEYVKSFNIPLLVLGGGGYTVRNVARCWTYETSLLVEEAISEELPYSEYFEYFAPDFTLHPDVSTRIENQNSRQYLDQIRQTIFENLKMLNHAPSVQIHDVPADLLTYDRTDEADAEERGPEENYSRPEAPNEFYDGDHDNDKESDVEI
T5 sequence (Q9Y618 395-489 partner limits assumed): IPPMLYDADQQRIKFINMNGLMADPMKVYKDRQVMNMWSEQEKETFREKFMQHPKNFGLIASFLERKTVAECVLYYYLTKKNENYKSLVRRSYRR
Chain of MMP-3 (P08254 100-477): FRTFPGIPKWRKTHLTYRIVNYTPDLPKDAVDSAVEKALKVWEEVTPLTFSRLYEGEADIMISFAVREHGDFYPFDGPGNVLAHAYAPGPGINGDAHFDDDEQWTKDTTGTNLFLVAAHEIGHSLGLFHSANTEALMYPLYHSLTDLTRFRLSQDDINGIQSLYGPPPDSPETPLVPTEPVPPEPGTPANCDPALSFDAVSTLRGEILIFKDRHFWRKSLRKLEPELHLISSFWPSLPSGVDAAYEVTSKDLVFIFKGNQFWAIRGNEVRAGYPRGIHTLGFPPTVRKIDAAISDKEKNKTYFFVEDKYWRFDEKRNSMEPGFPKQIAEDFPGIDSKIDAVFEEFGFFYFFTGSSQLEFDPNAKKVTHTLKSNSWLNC
Chain of peptidase domain of ColH (ColH-PD) (Q46085 331-721 limits assumed): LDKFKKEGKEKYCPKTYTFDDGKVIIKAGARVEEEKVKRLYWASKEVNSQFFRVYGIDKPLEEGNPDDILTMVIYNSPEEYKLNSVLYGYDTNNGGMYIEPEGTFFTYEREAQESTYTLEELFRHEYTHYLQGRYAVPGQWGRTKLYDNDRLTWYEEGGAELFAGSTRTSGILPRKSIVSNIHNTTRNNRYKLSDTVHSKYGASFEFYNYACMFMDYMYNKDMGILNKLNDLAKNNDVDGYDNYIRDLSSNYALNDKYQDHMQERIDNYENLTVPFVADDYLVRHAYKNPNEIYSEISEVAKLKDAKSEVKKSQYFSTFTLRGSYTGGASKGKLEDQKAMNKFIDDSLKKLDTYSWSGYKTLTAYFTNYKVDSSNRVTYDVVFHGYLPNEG
T7 sequence (P78536 215-824): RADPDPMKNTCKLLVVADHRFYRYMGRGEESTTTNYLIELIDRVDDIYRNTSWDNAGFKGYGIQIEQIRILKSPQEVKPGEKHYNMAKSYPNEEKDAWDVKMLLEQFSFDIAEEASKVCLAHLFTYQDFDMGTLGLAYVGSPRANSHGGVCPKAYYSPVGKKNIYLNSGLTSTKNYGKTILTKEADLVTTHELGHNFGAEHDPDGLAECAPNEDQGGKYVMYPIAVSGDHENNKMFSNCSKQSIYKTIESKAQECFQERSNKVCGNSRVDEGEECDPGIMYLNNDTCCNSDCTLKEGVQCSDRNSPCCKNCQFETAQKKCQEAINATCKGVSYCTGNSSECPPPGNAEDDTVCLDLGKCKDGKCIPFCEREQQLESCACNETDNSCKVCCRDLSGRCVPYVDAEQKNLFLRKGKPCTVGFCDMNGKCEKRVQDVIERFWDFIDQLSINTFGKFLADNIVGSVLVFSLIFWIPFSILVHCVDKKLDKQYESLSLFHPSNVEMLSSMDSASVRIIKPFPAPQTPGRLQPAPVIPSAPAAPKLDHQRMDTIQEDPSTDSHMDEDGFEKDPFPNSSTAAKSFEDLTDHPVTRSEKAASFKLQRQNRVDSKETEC

## Cc1c(O)c(=S)ccn1Cc1ccc(-c2ccccc2)cc1 [Compound 1]
LasB [1]
  IC50: 2.73 ± 0.03 µM

## O=C1CC(S)C(=O)N1c1ccc(Cl)c(Cl)c1 (stereo not drawn) [Compound 13, 1-(3,4-Dichlorophenyl)-3-mercaptopyrrolidine-2,5-dione]
[2]
  inhibition at 1 µM: 12 ± 2%
MMP-1
  inhibition at 100 µM: < 10%
MMP-2; 50 µM compound, read-out: MMP-2 % inh @50µM
  inhibition at 50 µM: < 10%
MMP-2; read-out: MMP-2 % inhibition @ 100 μM, 100 μM compound
  inhibition at 100 µM: 39 ± 32%
MMP-3
  inhibition at 100 µM: < 10%
MMP-7
  inhibition at 100 µM: < 10%
MMP-8; 50 µM compound, read-out: MMP-8 % inh @50µM
  inhibition at 50 µM: < 10%
MMP-8; read-out: MMP-8 % inhibition @ 100 μM, 100 μM compound
  inhibition at 100 µM: 84 ± 8%
MMP-14; 50 µM compound, read-out: MMP-14 % inh @50µM
  inhibition at 50 µM: < 10%
MMP-14; read-out: MMP-14 % inhibition @ 100 μM, 100 μM compound
  inhibition at 100 µM: < 10%
HDAC-3
  IC50: > 100 µM
HDAC-8
  IC50: > 100 µM
TACE (ADAM-17)
  IC50: 5.2 ± 0.6 µM
[3]
  MIC: >100 µM
[3]; Pseudomonas aeruginosa
  MIC: > 100 µM
LasB [4]
  improved activity against LasB compared to previous hit 5: two-fold
In vitro [5]
  IC50: > 100 µM
In vitro [6]
  IC50: > 100 µM
In vitro [7]
  IC50: > 100 µM
LasB [8]
  IC50: 3.4 ± 0.2 µM

Reference: publication PMC7429951 (Journal of Medicinal Chemistry, 2020)
